Test results from patent publication US9198894B2, “Uses of 15-benzylidene-14-deoxy-11,12-didehydroandrographolide derivatives in the preparation of antineoplastic drugs” (Zhengzhou University, priority 2010, dated 2015).
Marks after values point to notes of the source that are not given here.

What was measured:
Murine hepatoma H22 = assay: Anti-tumor and anti-angiogenesis effects on H22 tumor-bearing mice; type: in vivo, mouse; conditions: for IR (%) of tumor growth / Carmine contents / VI (vascular index, mg carmine red per g tumor tissue): H22 mice; for Carmine contents / VI (vascular index, mg carmine red per g tumor tissue): mean ± s; for Inhibition against angiogenesis in H22 tumor (in words) / Inhibition against the growth of mouse hepatoma H22 (in words): ig, tested doses 0.65-1.35 mmol/kg
Description: 1) Animals: Kunming mice of clean grade, half male and half female, body weight 20±2 g, were purchased from the experimental animal center of Henan Province, China. Qualified Certificate number: SCXK (Yu) 2005-0001.
2) Cells: Murine hepatoma H22 cells were presently obtained from Henan Academy of Medical and Pharmaceutical Sciences (Zhengzhou, China).
Cyclophosphamide (Cyc) was produced by Tianjin Jingshi Pharmaceutical Co., Ltd., China (approval number of medicine: H12021006). Gelatin and carmine red were supplied by Sigma Chemical (St. Louis, Mo., U.S.A). All other chemicals and reagents were of the highest commercial grade available. All drugs were prepared with normal saline emulsified with Tween-80 (0.1% v/v) and dispersed in carboxymethylcellulose (0.5% v/v). 10% (W/V) carmine solution was prepared with salt solution containing 5% (W/V) gelatin which should be used immediately after preparation. The rest of medicines and reagents and the methods for preparation were the same with that of EXAMPLE 1.
4) Method: The H22 cells after in vivo passage for 7 d were diluted with physiological saline to adjust to a concentration of 1×10^7/mL, injected to the armpit of right forelimb of mice subcutaneously (0.2 ml/mouse), then mice were divided into 10 groups (n=12; 6 male and 6 female per group) randomly. 24 h later each group of mice was administrated intragastrically (ig; 0.2 ml/10 g) once a day continuously for 7 d with vehicle (tumor control group and control group), Cyc (standard control), or compounds at the tested doses. After the last drug administration and a following fasting of 8 h, each mouse was anesthetized with 1% pentobarbital in normal saline solution (80 mg/kg; ip). Mice of control group were injected with 5% gelatin in normal saline solution (40) via the tail vein (1 ml/mouse); whereas mice of other groups were injected replaced by 10% carmine red and 5% gelatin in normal saline solution (40). Mice were killed, then freezed in a refrigerator at −20 for 2 h to solidify. Tumors were segregated, weighed and homogenized with 3 M NaOH solution (10 ml/g tumor). The homogenate supernatant was prepared by being centrifuged for 20 min at 14000 rpm, and the absorbance at 490 nm was assayed using a PowerWaveX Microplate Scanning Spectrophotometer (Bio-tek Instruments, Inc). The carmine red content was calculated based on the standard curve. The vascular index (VI) expressed as milligram of carmine red per gram of tumor tissue. The inhibition ratio (IR) of tumor growth was calculated using the formula: IR (%)=[(Wc−Wt)/Wc]×100%, where Wc is the average tumor weight of the control group, and Wt is that of the drug treatment group. Data were expressed as mean±SD and statistical analysis was performed by SPSS Statistics 17.0 using a one-way analysis of variance (ANOVA) followed by unpaired t-test. A value of P<0.05 was considered statistically significant.

S180 murine sarcoma = assay: Growth, invasion and metastasis of S180 sarcoma in tumor-bearing mice; type: in vivo, mouse; conditions: for Average invasion and metastasis grade: S180, grades 0-4; for Mouse Number Grade 0 / Mouse Number Grade 1 / Mouse Number Grade 2 / Mouse Number Grade 3 / Mouse Number Grade 4: S180 invasion; for Mouse Number Grade 0: Grade 0: no invasion; for Mouse Number Grade 1: Grade 1: invasion to right forelimb; for Mouse Number Grade 2: Grade 2: right forelimb and the left side of body; for Mouse Number Grade 3: Grade 3: also the ribs and muscles in chest; for Mouse Number Grade 4: Grade 4: invasion into chest or abdominal cavity; for In vivo antitumor effect on S180 compared with parent compound (in words) / Inhibitory effect on invasion and metastasis of S180 tumor tissues (in words): ig, tested doses
Procedure: (§1) 1) Animals: Be the same with that of EXAMPLE 4.
2) Cells: The S180 murine sarcoma cells were obtained from Henan Academy of Medical and Pharmaceutical Sciences (Zhengzhou, China).
4) Method: Mice were randomly divided into 10 groups (n=12). The S180 cells after in vivo passage for 7 d were diluted with physiological saline to adjust to a concentration of 1×10^7/mL. The inoculation of tumor cells was conducted in two batches, those of tumor control group I and groups treated with compounds 1 or 3 were in batch 1, those of tumor control group II, Cyc group and the compound 2 groups were in batch 2. The mice were injected with S180 cells (0.2 ml/mouse) into the armpit of right forelimb subcutaneously, and 24 h later each group of mice was administrated intragastrically (ig; 0.2 ml/10 g) once a day continuously for 9 d with vehicle (tumor control group), Cyc (standard control), or compounds at the tested doses. On day 10, kill the mice, observe and record the degree of invasion and metastasis of tumor tissues, then the tumor tissues were segregated and weighed. The inhibition ratio (IR) of tumor growth was calculated by the following formula: IR (%)=[(Wc−Wt)/Wc]×100%, where Wc is the average tumor weight of the control group, and Wt is that of the treatment group. Data were expressed as mean±SD and statistical analysis was performed by SPSS Statistics 17.0 using a one-way analysis of variance (ANOVA) followed by unpaired t-test. A value of P<0.05 was considered statistically significant.

mice = assay: Acute oral toxicity test, maximum limit method; type: in vivo; conditions: single dose 5.00 g/kg intragastric, 14 d observation; for Deaths: 10 animals
Procedure: as §1
3) Method: 20 mice weighing 20±2 g, half male and half female, were divided into 2 groups (n=10) randomly. Animals were administrated with compound 2 or compound 3 at a dose of 5.00 g/kg by intragastric administration after 12 h of fasting (drinking freely). Weigh the mice, observe and record the performance of animals once a day continuously for 14 d.

[1] = 1.10 mmol/kg (1.10 mmol/g [sic])

C=C1CCC2C(C)(CO)C(O)CCC2(C)C1C=CC1=CC(=Cc2ccc(Cl)cc2)OC1=O (centres unmarked) [Compound 2, 15-p-chlorobenzylidene-14-deoxy-11,12-didehydro-andrographolide]
IR (%) of tumor growth (Murine hepatoma H22; 0.65 mmol/kg ig once a day 7 d): 15.69%
Carmine contents (Murine hepatoma H22; 0.65 mmol/kg ig once a day 7 d): 4.63 ± 2.93
VI (vascular index, mg carmine red per g tumor tissue) (Murine hepatoma H22; 0.65 mmol/kg ig once a day 7 d): 4.42 ± 1.58 mg/g
IR (%) of tumor growth (Murine hepatoma H22; 1.00 mmol/kg ig once a day 7 d): 49.63**^ΔΔ %
Carmine contents (Murine hepatoma H22; 1.00 mmol/kg ig once a day 7 d): 2.59 ± 1.68*^Δ
VI (vascular index, mg carmine red per g tumor tissue) (Murine hepatoma H22; 1.00 mmol/kg ig once a day 7 d): 3.89 ± 0.89 mg/g
IR (%) of tumor growth (Murine hepatoma H22; 1.35 mmol/kg ig once a day 7 d): 50.37**^ΔΔ %
Carmine contents (Murine hepatoma H22; 1.35 mmol/kg ig once a day 7 d): 1.90 ± 1.39**^ΔΔ
VI (vascular index, mg carmine red per g tumor tissue) (Murine hepatoma H22; 1.35 mmol/kg ig once a day 7 d): 3.14 ± 1.69*^Δ mg/g
Inhibition against angiogenesis in H22 tumor (in words) (Murine hepatoma H22): significant inhibition
Inhibition against the growth of mouse hepatoma H22 (in words) (Murine hepatoma H22): significant inhibition
IR (%) of S180 sarcoma growth (S180 murine sarcoma; 0.60 mmol/kg ig once a day 9 d): 30.12 ± 8.00 %
IR (%) of S180 sarcoma growth (S180 murine sarcoma; 0.85 mmol/kg ig once a day 9 d): 53.38 ± 6.83**^ΔΔ %
IR (%) of S180 sarcoma growth (S180 murine sarcoma; 1.10 mmol/kg ig once a day 9 d): 45.16 ± 5.58**^ΔΔ %
Average invasion and metastasis grade (S180 murine sarcoma; 0.60 mmol/kg): 2.00
Average invasion and metastasis grade (S180 murine sarcoma; 0.85 mmol/kg): 0.00
Average invasion and metastasis grade (S180 murine sarcoma; [1]): 0.00
Mouse Number Grade 0 (S180 murine sarcoma; 0.60 mmol/kg): 0
Mouse Number Grade 0 (S180 murine sarcoma; 0.85 mmol/kg): 12
Mouse Number Grade 0 (S180 murine sarcoma; [1]): 12
Mouse Number Grade 1 (S180 murine sarcoma; 0.60 mmol/kg): 0
Mouse Number Grade 1 (S180 murine sarcoma; 0.85 mmol/kg): 0
Mouse Number Grade 1 (S180 murine sarcoma; [1]): 0
Mouse Number Grade 2 (S180 murine sarcoma; 0.60 mmol/kg): 12
Mouse Number Grade 2 (S180 murine sarcoma; 0.85 mmol/kg): 0
Mouse Number Grade 2 (S180 murine sarcoma; [1]): 0
Mouse Number Grade 3 (S180 murine sarcoma; 0.60 mmol/kg): 0
Mouse Number Grade 3 (S180 murine sarcoma; 0.85 mmol/kg): 0
Mouse Number Grade 3 (S180 murine sarcoma; [1]): 0
Mouse Number Grade 4 (S180 murine sarcoma; 0.60 mmol/kg): 0
Mouse Number Grade 4 (S180 murine sarcoma; 0.85 mmol/kg): 0
Mouse Number Grade 4 (S180 murine sarcoma; [1]): 0
In vivo antitumor effect on S180 compared with parent compound (in words) (S180 murine sarcoma): significantly stronger than that of the parent compound
Inhibitory effect on invasion and metastasis of S180 tumor tissues (in words) (S180 murine sarcoma): strong inhibitory effect
Mortality(%) (mice): 0%
Deaths (mice): 0

C=C1CCC2C(C)(COC(=O)c3cccnc3)C(OC(=O)c3cccnc3)CCC2(C)C1C=CC1=CC(=Cc2ccc(Cl)cc2)OC1=O (centres unmarked) [Compound 3, 15-p-chlorobenzylidene-14-deoxy-11,12-didehydro-3,19-dinicotinate andrographolide]
IR (%) of tumor growth (Murine hepatoma H22; 0.65 mmol/kg ig once a day 7 d): 37.89* %
Carmine contents (Murine hepatoma H22; 0.65 mmol/kg ig once a day 7 d): 2.26 ± 1.97*^Δ
VI (vascular index, mg carmine red per g tumor tissue) (Murine hepatoma H22; 0.65 mmol/kg ig once a day 7 d): 3.60 ± 1.86*^Δ mg/g
IR (%) of tumor growth (Murine hepatoma H22; 1.00 mmol/kg ig once a day 7 d): 41.26*^ΔΔ %
Carmine contents (Murine hepatoma H22; 1.00 mmol/kg ig once a day 7 d): 1.88 ± 1.26**^ΔΔ
VI (vascular index, mg carmine red per g tumor tissue) (Murine hepatoma H22; 1.00 mmol/kg ig once a day 7 d): 3.30 ± 1.43*^Δ mg/g
IR (%) of tumor growth (Murine hepatoma H22; 1.35 mmol/kg ig once a day 7 d): 49.27**^ΔΔ %
Carmine contents (Murine hepatoma H22; 1.35 mmol/kg ig once a day 7 d): 2.14 ± 1.42*^Δ
VI (vascular index, mg carmine red per g tumor tissue) (Murine hepatoma H22; 1.35 mmol/kg ig once a day 7 d): 3.88 ± 1.40 mg/g
Inhibition against angiogenesis in H22 tumor (in words) (Murine hepatoma H22): significant inhibition
Inhibition against the growth of mouse hepatoma H22 (in words) (Murine hepatoma H22): significant inhibition
IR (%) of S180 sarcoma growth (S180 murine sarcoma; 0.60 mmol/kg ig once a day 9 d): 18.89 ± 3.68 %
IR (%) of S180 sarcoma growth (S180 murine sarcoma; 0.85 mmol/kg ig once a day 9 d): 20.21 ± 4.37 %
IR (%) of S180 sarcoma growth (S180 murine sarcoma; 1.10 mmol/kg ig once a day 9 d): 24.44 ± 6.30 %
IR (%) of S180 sarcoma growth (S180 murine sarcoma; 1.35 mmol/kg ig once a day 9 d): 31.21 ± 5.96**^Δ %
Average invasion and metastasis grade (S180 murine sarcoma; 0.60 mmol/kg): 1.08
Average invasion and metastasis grade (S180 murine sarcoma; 0.85 mmol/kg): 1.25
Average invasion and metastasis grade (S180 murine sarcoma; [1]): 0.42
Mouse Number Grade 0 (S180 murine sarcoma; 0.60 mmol/kg): 4
Mouse Number Grade 0 (S180 murine sarcoma; 0.85 mmol/kg): 5
Mouse Number Grade 0 (S180 murine sarcoma; [1]): 8
Mouse Number Grade 1 (S180 murine sarcoma; 0.60 mmol/kg): 5
Mouse Number Grade 1 (S180 murine sarcoma; 0.85 mmol/kg): 2
Mouse Number Grade 1 (S180 murine sarcoma; [1]): 3
Mouse Number Grade 2 (S180 murine sarcoma; 0.60 mmol/kg): 1
Mouse Number Grade 2 (S180 murine sarcoma; 0.85 mmol/kg): 2
Mouse Number Grade 2 (S180 murine sarcoma; [1]): 1
Mouse Number Grade 3 (S180 murine sarcoma; 0.60 mmol/kg): 2
Mouse Number Grade 3 (S180 murine sarcoma; 0.85 mmol/kg): 3
Mouse Number Grade 3 (S180 murine sarcoma; [1]): 0
Mouse Number Grade 4 (S180 murine sarcoma; 0.60 mmol/kg): 0
Mouse Number Grade 4 (S180 murine sarcoma; 0.85 mmol/kg): 0
Mouse Number Grade 4 (S180 murine sarcoma; [1]): 0
In vivo antitumor effect on S180 compared with parent compound (in words) (S180 murine sarcoma): significantly stronger than that of the parent compound
Inhibitory effect on invasion and metastasis of S180 tumor tissues (in words) (S180 murine sarcoma): strong inhibitory effect
Mortality(%) (mice): 0%
Toxic symptoms observed (mice): No apparent toxic symptoms
Deaths (mice): 0
